Data set [1] is described as follows: Toxicity in nude mouse xenografted with human SW1990 cells assessed as liver damage at 15 mg/kg, ip administered for 28 days by H and E staining based fluorescence microscopic analysis. The format is organism-based. Conditions: in vivo, 672 h, time 28 day. Background: A xenograft is tissue or cells of one species grown in another, often human tumour cells in immunodeficient mice.

Data set [2] concerns CFPAC-1. As to the kind of experiment: Antiproliferative activity against human CFPAC-1 cells assessed as inhibition of cell growth measured after 7 days by MTT assay. The format is functional, cell-based. Conditions: CFPAC-1, 168 h. Background: Tetrazolium dyes change colour on reduction, which living cells bring about.
The test system of data set [3] is SW1990. Put plainly: Effect on CDC25B gene expression in human SW1990 cells at 4 uM by Q-PCR analysis. The format is functional, cell-based.
Data set [4] relates to SW1990. Put plainly: Effect on MDC1 gene expression in human SW1990 cells at 1 uM in presence of Olaparib by Q-PCR analysis. The format is functional, cell-based.
Data set [5] is filed under the species Mus musculus. As to conditions: dose 15.0 mg/kg, route ip, time 28.0 day.
The next data set deals with HCT-116. Put plainly: Antiproliferative activity against BRCA2-mutated human HCT-116 cells assessed as inhibition of cell growth measured after 7 days by MTT assay. The format is functional, cell-based. As to conditions: HCT-116, 168 h.
For data set [6], the system named is CAPAN-1. As to the kind of experiment: Antiproliferative activity against human CAPAN-1 cells assessed as inhibition of cell growth measured after 7 days by MTT assay. The format is functional, cell-based. As to conditions: CAPAN-1, 168 h.
For a further data set, the system named is THP-1. As to the kind of experiment: Antiproliferative activity against human THP-1 cells expressing BRD4 assessed as inhibition of cell growth measured after 3 days by MTT assay. The format is functional, cell-based. Conditions: THP-1, 72 h.
Data set [7] relates to CAPAN-1. As to the kind of experiment: Antiproliferative activity against human CAPAN-1 cells assessed as inhibition of cell growth measured after 5 days by MTT assay. The format is functional, cell-based. As to conditions: CAPAN-1, 120 h.
Data set [8] concerns CFPAC-1. As to the kind of experiment: Antiproliferative activity against human CFPAC-1 cells assessed as inhibition of cell growth measured after 4 days by MTT assay. The format is functional, cell-based. Conditions: CFPAC-1, 96 h.
The test system of data set [9] is SW1990. As to the kind of experiment: Antiproliferative activity against human SW1990 cells assessed as inhibition of cell growth measured after 5 days by MTT assay. As to conditions: SW1990, 120 h. The format is functional, cell-based.
The subject of data set [10] is SW1990. As to the kind of experiment: Antiproliferative activity against human SW1990 cells assessed as inhibition of cell growth after 3 days by MTT assay. The format is functional, cell-based. Conditions: SW1990, 72 h.
The subject of data set [11] is SW1990. As to the kind of experiment: Induction of DNA damage in human SW1990 cells assessed as increase in gammaH2AX expression at 4 uM incubated for 4 days by DAPI staining based laser confocal microscopic analysis. The format is functional, cell-based. Conditions: time 4.0 day.
Data set [12] concerns CAPAN-1. Put plainly: Antiproliferative activity against human CAPAN-1 cells assessed as inhibition of cell growth measured after 3 days by MTT assay. The format is functional, cell-based. Conditions: CAPAN-1, 72 h.
The next data set relates to MDA-MB-468. Put plainly: Antiproliferative activity against BRCA-proficient human MDA-MB-468 cells assessed as inhibition of cell growth measured after 7 days by MTT assay. The format is functional, cell-based. Conditions: MDA-MB-468, 168 h.
Data set [13] has as its system SW1990. Put plainly: Effect on TOPBP1 gene expression in human SW1990 cells at 1 uM in presence of Olaparib by Q-PCR analysis. The format is functional, cell-based.
Data set [14] relates to SW1990. As to the kind of experiment: Effect on MDC1 gene expression in human SW1990 cells at 4 uM by Q-PCR analysis. The format is functional, cell-based.
For data set [15], the system named is SW1990. Put plainly: Induction of apoptosis in human SW1990 cells assessed as late apoptotic cells at 1 uM measured after 4 days in presence of 3 uM Olaparib by Annexin V-FITC and propidium iodide staining based flow cytometry (reference value: 7.23%). The format is functional. As to conditions: time 4 day. Background: A flow cytometer gives signals particle by particle.

The test system of data set [16] is CFPAC-1. Put plainly: Antiproliferative activity against human CFPAC-1 cells assessed as inhibition of cell growth measured after 3 days by MTT assay. Conditions: CFPAC-1, 72 h. The format is functional, cell-based.
Data set [17] concerns SW1990. Put plainly: Antiproliferative activity against human SW1990 cells assessed as inhibition of cell growth measured after 7 days by MTT assay. The format is functional, cell-based. As to conditions: SW1990, 168 h.
Data set [18] concerns SW1990. Put plainly: Effect on FOXO1 gene expression in human SW1990 cells at 1 to 2 uM by Q-PCR analysis. The format is functional, cell-based. Conditions: dose 1-2 µM.
Data set [19] has as its system SW1990. Put plainly: Induction of apoptosis in human SW1990 cells assessed as early apoptotic cells at 1 uM measured after 4 days by Annexin V-FITC and propidium iodide staining based flow cytometry (reference value: 1.62%). The format is functional. Conditions: time 4 day.
Data set [20] deals with Mus musculus. Put plainly: Inhibition of CCNB1 expression in nude mouse xenografted with human SW1990 cells at 30 mg/kg, ip measured after 4 days by Q-PCR analysis. The format is functional, organism-based. As to conditions: time 4.0 day.
Data set [21] concerns SW1990. As to the kind of experiment: Inhibition of homologous recombinant repair in human SW1990 cells assessed as reversal of Olaparib-induced MDC1 expression at 1 to 2 uM after 4 days by Western blot analysis. As to conditions: dose 1-2 µM, time 4.0 day. The format is functional, cell-based.
Data set [22] deals with SW1990. Put plainly: Effect on CDK1 to 2 gene expression in human SW1990 cells at 1 to 2 uM by Q-PCR analysis. The format is functional, cell-based. As to conditions: dose 1-2 µM.
For data set [23], the system named is Mus musculus. As to the kind of experiment: Inhibition of CDK1 expression in nude mouse xenografted with human SW1990 cells at 30 mg/kg, ip measured after 4 days by Q-PCR analysis. The format is functional, organism-based. As to conditions: time 4.0 day.
The test system of data set [24] is CFPAC-1. Put plainly: Antiproliferative activity against human CFPAC-1 cells assessed as inhibition of cell growth measured after 5 days by MTT assay. The format is functional, cell-based. Conditions: CFPAC-1, 120 h.
Data set [25] concerns SW1990. Put plainly: Induction of cell cycle arrest in human SW1990 cells assessed as accumulation of cells at G2/M phase at 1 uM incubated for 4 days by propidium iodide staining based flow cytometry (reference value: 5.89%). The format is functional. As to conditions: time 4 day.
For data set [26], the system named is SW1990. Put plainly: Inhibition of homologous recombinant repair in human SW1990 cells assessed as reversal of Olaparib-induced HEXIM1 expression at 1 to 2 uM after 4 days by Western blot analysis. The format is functional, cell-based. As to conditions: dose 1-2 µM, time 4.0 day.
In data set [27] the test system is Mus musculus. As to the kind of experiment: Inhibition of E2F2 expression in nude mouse xenografted with human SW1990 cells at 30 mg/kg, ip measured after 4 days by Q-PCR analysis. As to conditions: time 4.0 day. The format is functional, organism-based.
Data set [28] relates to Mus musculus. As to the kind of experiment: Inhibition of CDK6 expression in nude mouse xenografted with human SW1990 cells at 30 mg/kg, ip measured after 4 days by Q-PCR analysis. The format is functional, organism-based. Conditions: time 4.0 day.
The test system of data set [29] is Mus musculus. As to the kind of experiment: Inhibition of homologous recombinant repair in nude mouse xenografted with human SW1990 cells assessed as reversal of olaparib-induced Rad51 expression at 30 mg/kg, ip after 4 days by Western blot analysis. The format is functional, organism-based. As to conditions: time 4.0 day.
Data set [30] deals with SW1990. Put plainly: Antitumor activity against human SW1990 cells xenografted in nude mouse assessed as reduction in tumor weight at 30 mg/kg, ip administered for 28 days and measured every 3 days by vernier caliper method. The format is functional, organism-based. Conditions: time 28.0 day.
Data set [31] is described as follows: Toxicity in nude mouse xenografted with human SW1990 cells assessed as heart damage at 45 mg/kg, ip administered for 28 days by H and E staining based fluorescence microscopic analysis. The format is organism-based. Conditions: in vivo, 672 h, time 28 day.
Data set [32] relates to SW1990. Put plainly: Induction of Rad51 accumulation in nucleus of human SW1990 cells at 6 uM measured after 4 days by Western blot analysis. The format is functional, cell-based. Conditions: time 4.0 day.
Data set [33] deals with SW1990. Put plainly: Effect on HEXIM1 gene expression in human SW1990 cells at 6 uM by Q-PCR analysis. The format is functional, cell-based.
Data set [34] concerns SW1990. As to the kind of experiment: Upregulation of CDK6 expression in human SW1990 cells at 6 uM measured after 4 days by Western blot analysis. The format is functional, cell-based. Conditions: time 4.0 day.
The test system of data set [35] is SW1990. Put plainly: Effect on ALDH1A1 gene expression in human SW1990 cells at 6 uM by Q-PCR analysis. The format is functional, cell-based.

The structures appear in SMILES notation. Calls of active or inactive are those of the source. The calls are words filed in the database; no cut-off is given here.

With `Cc1sc2c(c1C)C(c1ccc(Cl)cc1)=N[C@@H](CC(=O)OC(C)(C)C)c1nnc(C)n1-2`, the Activity result in [1] was “Non-Toxic”; with SW1990 [15], 34.5%. Besides, the IC50 in the data set on CFPAC-1 [2] came out at 350 nM; in the data set on HCT-116, 2030 nM; in the data set with CAPAN-1 [6], 450 nM; in the data set on THP-1 it was 330 nM; in the data set on CAPAN-1 [7] (read-out: IC50) it was 580 nM; in the data set on CFPAC-1 [8], 1860 nM. The IC50 in the data set with SW1990 [9] was 1110 nM; in the data set on SW1990 [10], 31600 nM; in the data set on CAPAN-1 [12] it was 24100 nM; in the data set with MDA-MB-468 it was 540 nM; in the data set with CFPAC-1 [16], 13900 nM; with SW1990 [17], 630 nM. Also, the outcome in the data set on SW1990 [3], in the data set with SW1990 [4], in the data set with SW1990 [11], with SW1990 [13] and with SW1990 [14] was Active. In the data set listed under Mus musculus [5], the inhibition result is “Active”.
`Cc1noc(C)c1-c1ccc2c(c1)C(c1ccccc1)N(Cc1nc3c(C(N)=O)cccc3[nH]1)C(=O)N2C` (configuration not stated): the half-maximal inhibitory concentration (IC50) with CFPAC-1 [2] was determined as 210 nM; with HCT-116 it was 1440 nM; with CAPAN-1 [6], 170 nM; with THP-1 it was 430 nM; in the data set on CAPAN-1 [7] (read-out: IC50), 410 nM; in the data set on CFPAC-1 [8] it was 1310 nM. Moreover, the IC50 was determined as 980 nM in the data set on SW1990 [9]; 11700 nM in the data set with SW1990 [10]; 7210 nM in the data set with CAPAN-1 [12]; 980 nM in the data set on CFPAC-1 [24]; 90 nM with MDA-MB-468; 2430 nM in the data set on CFPAC-1 [16]. Moreover, the IC50 with SW1990 [17] amounted to 560 nM. For the same compound, the result with SW1990 [18], with SW1990 [22] and in the data set with SW1990 [30] was Active. The values for the Activity in the data set with SW1990 [19] and with SW1990 [25] were 3.02% and 10.13%, respectively. Besides, the inhibition entry in the data set with Mus musculus [20], in the data set with SW1990 [21], with Mus musculus [23], with SW1990 [26], in the data set on Mus musculus [27] and with Mus musculus [28] was “Active” throughout. Also, the inhibition result with Mus musculus [29] is “Active”.
On to `O=C(c1cc(Cc2n[nH]c(=O)c3ccccc23)ccc1F)N1CCN(C(=O)C2CC2)CC1` [OLAPARIB], for which the half-maximal inhibitory concentration (IC50) with CFPAC-1 [2] came out at 7440 nM; in the data set with HCT-116, 7320 nM; in the data set on CAPAN-1 [6], 2610 nM; in the data set on THP-1 it was 32300 nM; in the data set on CAPAN-1 [7] it was 5340 nM; with SW1990 [9] it was 4930 nM. Also, the IC50 in the data set on SW1990 [10] was 19400 nM; with CAPAN-1 [12], 25200 nM; in the data set with CFPAC-1 [24], 9870 nM; in the data set with MDA-MB-468 it was 1830 nM; in the data set with CFPAC-1 [16] it was 28700 nM; in the data set on SW1990 [17], 3630 nM. Further, the Activity entry in [31] is “Non-Toxic”. The outcome in the data set with SW1990 [32], with SW1990 [33], in the data set on SW1990 [34] and in the data set with SW1990 [35] was Active.

What is called IC50 is the point on the concentration scale where inhibition reaches its midpoint.

(Values after ChEMBL document CHEMBL5131471, “Design, synthesis and mechanism studies of novel dual PARP1/BRD4 inhibitors against pancreatic cancer” (Eur J Med Chem, 2022).)
